Measurements taken from ChEMBL document CHEMBL4706692, “CC-90009: A Cereblon E3 Ligase Modulating Drug That Promotes Selective Degradation of GSPT1 for the Treatment of Acute Myeloid Leukemia” (J Med Chem, 2021).

Experiments:
THLE-2 = assay: Cytotoxicity against human THLE-2 cells assessed as cell viability incubated for 72 hrs by cell titer glo assay; type: cell-based; conditions: THLE-2, 72 h
KG-1 = assay: Antiproliferative activity against human KG-1 cells assessed as reduction in cell viability incubated for 72 hrs by cell titer glo assay; type: functional, cell-based; conditions: KG-1, 72 h
[1] = Selectivity index, ratio of IC50 for cytotoxicity against human THLE-2 cells to IC50 for antiproliferative activity against human KG-1 cells
MOLM-13 = assay: Antiproliferative activity against human MOLM-13 cells assessed as reduction in cell viability incubated for 72 hrs by cell titer glo assay; type: functional, cell-based; conditions: MOLM-13, 72 h
HL-60 = assay: Antiproliferative activity against human HL-60 cells assessed as reduction in cell viability incubated for 72 hrs by cell titer glo assay; type: functional, cell-based; conditions: HL-60, 72 h
U-937 = assay: Antiproliferative activity against human U937 cells assessed as reduction in cell viability incubated for 72 hrs by cell titer glo assay; type: functional, cell-based; conditions: U-937, 72 h
MV4-11 = assay: Antiproliferative activity against human MV4-11 cells assessed as reduction in cell viability incubated for 72 hrs by cell titer glo assay; type: functional, cell-based; conditions: MV4-11, 72 h
NB-4 = assay: Antiproliferative activity against human NB4 cells assessed as reduction in cell viability incubated for 72 hrs by cell titer glo assay; type: functional, cell-based; conditions: NB-4, 72 h
OCI-AML-3 = assay: Antiproliferative activity against human OCI-AML3 cells assessed as reduction in cell viability incubated for 72 hrs by cell titer glo assay; type: functional, cell-based; conditions: OCI-AML-3, 72 h
OCI-AML2 = assay: Antiproliferative activity against human OCI-AML2 cells assessed as reduction in cell viability incubated for 72 hrs by cell titer glo assay; type: functional, cell-based; conditions: OCI-AML2, 72 h
Kasumi 1 = assay: Antiproliferative activity against human Kasumi 1 cells assessed as reduction in cell viability incubated for 72 hrs by cell titer glo assay; type: functional, cell-based; conditions: Kasumi 1, 72 h
KG-1a = assay: Antiproliferative activity against human KG-1a cells assessed as reduction in cell viability incubated for 72 hrs by cell titer glo assay; type: functional, cell-based

| IC50 (MOLM-13) | IC50 (HL-60) | IC50 (U-937) | IC50 (MV4-11) | IC50 (OCI-AML-3) | IC50 (OCI-AML2) | Structure (SMILES) | IC50 (THLE-2) | IC50 (KG-1) | Ratio IC50 [1] | IC50 (NB-4) | IC50 (Kasumi 1) | IC50 (KG-1a) |
| --- | --- | --- | --- | --- | --- | --- | --- | --- | --- | --- | --- | --- |
| – | – | – | – | – | – | O=C(Cc1ccccc1)NCc1ccc2c(c1)CN(C1CCC(=O)NC1=O)C2=O (centres undefined) | 231 nM | 37 nM | 6 | – | – | – |
| 8 nM | 3 nM | 11 nM | 5 nM | 73 nM | 21 nM | Cc1ccc(NC(=O)NCc2ccc3c(c2)CN(C2CCC(=O)NC2=O)C3=O)cc1Cl (centres undefined) | 11 nM | 7 nM | – | 2 nM | 10 nM | 8 nM |
| – | – | – | – | – | – | O=C1CCC(N2Cc3cc(CNC(=O)C(=O)c4ccccc4)ccc3C2=O)C(=O)N1 (centres undefined) | 196 nM | 9 nM | 22 | – | – | – |
| – | – | – | – | – | – | O=C1CCC(N2Cc3cc(CNC(=O)c4ccccc4)ccc3C2=O)C(=O)N1 (centres undefined) | > 10000 nM | > 10000 nM | – | – | – | – |
